Where two headings read alike, the source gives them in different places. Each block holds one compound with its values, some of them ahead of it.
Legend:
C. neoformans = assay: Antifungal activities, MIC/MFC; type: cell-based
Protocol: (§1) A similar sequence of reactions was carried out using lysine dicholamide in place of cholic acid afforded VJ-1147 of Table 2. To assess the antifungal properties of the diwalled VJ-1138 (Table 2) and 2a of Table 3, their in vitro activities were examined against four clinically relevant microbes, i.e., C. albicans, C. glabrata, C. neoformans, and C. gatti (Table 4).
(§2) Minimum inhibitory concentrations (MIC) and minimum fungicidal concentrations (MFC) are the lowest concentrations that are required for completely inhibiting growth, and killing at least 99% of the fungi, respectively.
(§3) The above molecules were tested for antifungal activity. Minimum inhibitory concentrations (MIC) and minimum fungicidal concentrations (MFC) are the lowest concentrations that are required for completely inhibiting growth, and killing at least 99% of the fungi, respectively. As is apparent from Table 4 below, there is a general trend; i.e., increased antifungal activity is observed as the length of the hydrocarbon chain that separates the facial amphiphile from the Amphotericin B moiety is decreased.

C. glabrata = assay: Antifungal activities, MIC/MFC; type: cell-based
Protocol: as §1, §2, §3

C. albicans = assay: Antifungal activities, MIC/MFC; type: cell-based
Protocol: as §1, §2, §3

C. gatti = assay: Antifungal activities, MIC/MFC; type: cell-based
Protocol: as §1, §2, §3

[1] = system: C. albicans, C. glabrata, C. neoformans, and C. gatti; assay: In vitro antifungal activity, general statements on the four microbes; type: cell-based; conditions: at 11 μM
Protocol: as §1, §2

sheep red blood cells = assay: Hemolysis measurements, release of hemoglobin; type: cell-based
Protocol: Sheep Red Blood Cells, 10%, in saline (Innovative Research, Novi, Mich.), were diluted in saline (pH 7.4) to a concentration of 4%, which corresponds to 4×10^7 cells/mL. All measurements were carried out in duplicate. Solutions of Amphotericin B (Sigma-Aldrich) were prepared by adding 10 μL of a DMSO solution containing a given concentration of the antibiotic (i.e., ranging from 0.2 mM to 50 mM) to 490 μL of PBS. After the resulting solution was vortex mixed for 30 seconds (s) it was incubated at 37° C. for 15 min. The resulting solution of antibiotic (500 μL) was then mixed with 500 μL of the 4% erythrocyte dispersion at 37° C. in a 1 mL plastic centrifuge vial to give a dispersion that was vortex mixed at slow rate for 5 s. After 1 h of incubation at 37° C., all samples were centrifuged (1500 g, Eppendorf centrifuge 5415C, 5000 rpm) at rt for 5 min. The supernatant (˜0.7 mL) from each plastic vial was carefully separated from sediment using a disposable glass pipette and quickly transferred to test tube. A volume of 50 μL of this supernatant was then transferred to a UV cell containing 500 μL of PBS that was maintained at 37° C. The UV spectrum was then scanned (450-650 nm) and the absorbance at 575 nm used to determine the extent of hemolysis. The extent of 0% and 100% of hemolysis was obtained from A575 values of experiments that were run in absence of AmphB (control, [A575,]o) and in presence, 100 μM AmphB ([A575]max), respectively.

[2] = Critical aggregation concentration (CAC) by UV absorptivity; type: physicochemical; conditions: PBS, 37° C., absorptivity at 409 nm
Description: If one lets: (i) T, m, and P represent the total, the monomeric, and the aggregate concentrations of this macrolide, respectively; (ii) ε represent the apparent molar absorptivity; and (iii) εm and εp represent the molar absorptivity for the monomeric and aggregate components, respectively, then it can be shown that ε=εp+(εm−εp)m/T. See Yamashita K, Janout V, Bernard E M, Armstrong D, and Regen, S L. Micelle/monomer control over the membrane disrupting properties of an amphiphilic antibiotic. J. Am. Chem. Soc. 117 (1995) 6249-6253. At concentrations that are in excess of its CAC, m is constant, and ε is expected to be inversely proportional to T. Thus, by measuring the apparent molar absorptivity as a function of the reciprocal of the concentration of VJ-1138, its CAC value is estimated to be 0.9 μM (from the intercept of two straight lines).
Determination of Critical Aggregation Concentration (CAC) of AmphB and molecular conjugates. Solutions of AmphB and molecular conjugates in DMSO (Sigma-Aldrich) were prepared having a concentration of 1.00 mM. […] The UV spectrum was then recorded in the range of 250-550 nm. The absorbance at 408 nm was plotted as a function of the reciprocal value of the concentration of AmB and the critical aggregation concentration of the molecular conjugates was then determined, graphically.

HEK293T cells = assay: Inhibition of cell growth, MTT cell viability; type: cell-based, human; conditions: varying concentrations; FIG. 11
Protocol: Human embryonic kidney HEK293 cells were cultured in Dulbecco's modified Eagle's medium (DMEM supplemented with 10% FBS, 100 U/mL penicillin, and 0.1 mg/mL SI-10 streptomycin) in a humidified atmosphere of 5% CO2 at 37° C.
HEK293T cells were seeded in 96-well plates at a density of 6,000 cells/well and incubated overnight. Before treatment, compounds aliquots were solubilized in DMSO to obtain 10 mM stock solutions. Appropriate volumes of these stock solutions were added to DMEM media so the final concentration of DMSO is equal to 1%. After removal of cell media, 50 μL of treatment solutions were added to each well and incubated at 37° C. for 2 h. After treatment, the media was removed, and 100 μL of complete medium was added to each well before returning the plate to the incubator. Cell viability was determined after 72 h using the colorimetric MTT assay. Briefly, 10 μL of a 5 mg/mL MTT stock solution was added to the treated cells and incubated for 2 h at 37° C. The resulting formazan crystals were solubilized in 200 μL of DMSO, and the absorbance was measured at 580 nm using an Infinite 200 PRO microplate reader (Tecan). Cell viability was calculated against control cells treated with the vehicle in DMEM.

[3] = at concentrations as high as 400 μM, 37° C. in PBS, pH 7.4
[4] = summary, no concentration stated
[5] = second Table 4 (Example 4), C. neoformans
[6] = second Table 4 (Example 4), C. glabrata
[7] = second Table 4 (Example 4), C. albicans
[8] = second Table 4 (Example 4), C. gatti

Compound: CC1OC(O[C@H]2/C=C/C=C/C=C/C=C/C=C/C=C/C=C/[C@H](C)[C@@H](O)[C@@H](C)[C@H](C)OC(=O)C[C@H](O)C[C@H](O)CC[C@@H](O)[C@H](O)C[C@H](O)C[C@]3(O)C[C@H](O)[C@@H](C(=O)NCCCCCCCC(=O)N(CCCCNC(=O)C(CCCCNC(=O)CC[C@@H](C)C4CCC5C6C(O)CC7CC(O)CCC7(C)C6CC(O)C54C)NC(=O)CC[C@@H](C)C4CCC5C6C(O)CC7CC(O)CCC7(C)C6CC(O)C54C)CCCNC(=O)C(CCCCNC(=O)CC[C@@H](C)C4CCC5C6C(O)CC7CC(O)CCC7(C)C6CC(O)C54C)NC(=O)CC[C@@H](C)C4CCC5C6C(O)CC7CC(O)CCC7(C)C6CC(O)C54C)[C@H](C2)O3)C(O)C(N)C1O (stereo partly drawn) [VJ-1155]
- MIC (C. neoformans; Cryptococcus neoformans): > 11 µM
- MIC (C. glabrata; Nakaseomyces glabratus): > 11 µM
- MIC (C. albicans; Candida albicans): > 11 µM
- MIC (C. gatti): > 11 µM
- antifungal activity [1]: no antifungal activity

- MIC (C. neoformans; Cryptococcus neoformans, first Table 4, C. neoformans, read-out: MIC): 0.3 µM
- MIC (C. neoformans; Cryptococcus neoformans, second Table 4 (Example 4), C. neoformans, read-out: MIC): 0.3 µg/mL
- MIC (C. glabrata; Nakaseomyces glabratus, first Table 4, C. glabrata, read-out: MIC): 0.5 µM
- MIC (C. glabrata; Nakaseomyces glabratus, second Table 4 (Example 4), C. glabrata, read-out: MIC): 0.5 µg/mL
- MIC (C. albicans; Candida albicans, first Table 4, lowest concentration completely inhibiting growth, C. albicans, read-out: MIC): 0.5 µM
- MIC (C. albicans; Candida albicans, second Table 4 (Example 4), C. albicans, read-out: MIC): 0.5 µg/mL
- MIC (C. gatti; first Table 4, C. gatti, read-out: MIC): 0.3 µM
- MIC (C. gatti; second Table 4 (Example 4), C. gatti, read-out: MIC): 0.3 µg/mL
- critical aggregation concentration (CAC) [2]: ~0.9 µM
Compound: C[C@@H]1[C@H](O)[C@@H](C)/C=C/C=C/C=C/C=C/C=C/C=C/C=C/[C@H](O[C@@H]2O[C@H](C)[C@@H](O)[C@H](N)[C@@H]2O)C[C@@H]2O[C@](O)(C[C@@H](O)C[C@@H](O)[C@H](O)CC[C@@H](O)C[C@@H](O)CC(=O)O[C@H]1C)C[C@H](O)[C@H]2C(=O)O [AmphB, amphotericin B, reference compound]
- EH50, concentration required to induce 50% release of hemoglobin from erythrocytes (sheep red blood cells; 37° C. in saline, pH 7.4): 4 µM
- MFC (C. neoformans; Cryptococcus neoformans, first Table 4, C. neoformans, read-out: MFC): 0.5 µM
- MFC (C. neoformans; Cryptococcus neoformans, second Table 4 (Example 4), C. neoformans, read-out: MFC): 0.5 µg/mL
- MFC (C. glabrata; Nakaseomyces glabratus, first Table 4, C. glabrata): 1 µM
- MFC (C. glabrata; Nakaseomyces glabratus, second Table 4 (Example 4), C. glabrata): 1 µg/mL
- MFC (C. albicans; Candida albicans, first Table 4, lowest concentration killing at least 99% of the fungi, C. albicans, read-out: MFC): 1 µM
- MFC (C. albicans; Candida albicans, second Table 4 (Example 4), C. albicans, read-out: MFC): 1 µg/mL
- MFC (C. gatti; first Table 4, C. gatti, read-out: MFC): 0.5 µM
- MFC (C. gatti; second Table 4 (Example 4), C. gatti, read-out: MFC): 0.5 µg/mL

Compound: CC1OC(O[C@H]2/C=C/C=C/C=C/C=C/C=C/C=C/C=C/[C@H](C)[C@@H](O)[C@@H](C)[C@H](C)OC(=O)C[C@H](O)C[C@H](O)CC[C@@H](O)[C@H](O)C[C@H](O)C[C@]3(O)C[C@H](O)[C@@H](C(=O)NCCCCCCCCNC(=O)CC[C@@H](C)C4CCC5C6C(O)CC7CC(O)CCC7(C)C6CC(O)C54C)[C@H](C2)O3)C(O)C(N)C1O (stereo partly drawn) [YYM-69]
- hemolytic activity (sheep red blood cells; [3]): negligible hemolytic activities
- hemolytic activity (sheep red blood cells; [4]): negligible hemolytic activity
- MFC (C. neoformans; [5]): 2 µg/mL
- MIC (C. neoformans; [5]): 1 µg/mL
- MIC (C. glabrata; [6]): >16/— μg/mL
- MFC (C. albicans; [7]): 2 µg/mL
- MIC (C. albicans; [7]): 2 µg/mL
- MFC (C. gatti; [8]): 2 µg/mL
- MIC (C. gatti; [8]): 1 µg/mL
- toxicity towards HEK293 cells (HEK293T cells): negligible cytotoxicity

Compound: CC1OC(O[C@H]2/C=C/C=C/C=C/C=C/C=C/C=C/C=C/[C@H](C)[C@@H](O)[C@@H](C)[C@H](C)OC(=O)C[C@H](O)C[C@H](O)CC[C@@H](O)[C@H](O)C[C@H](O)C[C@]3(O)C[C@H](O)[C@@H](C(=O)NCCCCCCCCCCNC(=O)CC[C@@H](C)C4CCC5C6C(O)CC7CC(O)CCC7(C)C6CC(O)C54C)[C@H](C2)O3)C(O)C(N)C1O (stereo partly drawn) [YYM-71]
- hemolytic activity (sheep red blood cells; [3]): negligible hemolytic activities
- hemolytic activity (sheep red blood cells; [4]): negligible hemolytic activity
- MFC (C. neoformans; [5]): > 16 µg/mL
- MIC (C. neoformans; [5]): 2 µg/mL
- MIC (C. glabrata; [6]): >16/— μg/mL
- MIC (C. albicans; [7]): >16/— μg/mL
- MFC (C. gatti; [8]): > 16 µg/mL
- MIC (C. gatti; [8]): 1 µg/mL
- toxicity towards HEK293 cells (HEK293T cells): negligible cytotoxicity
